This note sets out measurements from PMC8286840, “Identifying SARS-CoV-2 antiviral compounds by screening for small molecule inhibitors of Nsp3 papain-like protease” (Biochemical Journal, 2021).

Structures can show the parent of a compound that is named as a salt. Where two headings read alike, the source gives them in different places.

Test [1] concerns the target T1, SARS-CoV-2 PLpro (nsp3 1564–1878) (Severe acute respiratory syndrome coronavirus 2, UniProt P0DTD1). Briefly: biochemical. Further details: FRET-quenched peptide (Pro3) cleavage by PLpro, 10 min pre-incubation, slope over 20 min, normalised to no-compound control. The conditions noted are these: low concentration screen, read-out: % of control remaining.
The target in test [2] is T1, SARS-CoV-2 PLpro (nsp3 1564–1878). Briefly: biochemical. On the set-up: FRET-quenched peptide (Pro3) cleavage by PLpro, 10 min pre-incubation, slope over 20 min, normalised to no-compound control. The conditions noted are these: high concentration screen, read-out: % of control remaining.

In the case of `CCNC(=O)CCC/C=C\C[C@@H]1[C@@H](/C=C/[C@@H](O)CCc2ccccc2)[C@H](O)C[C@@H]1O` [Bimatoprost], the remaining activity at 1.25 µM in test [1] (Well no.=5237) came to 100%. Further, the remaining activity at 3.75 µM in test [2] (Well no.=5237) is 101%.

As for `CCc1ccc(OCc2ccccc2C(=O)Nc2ccc3nc(C)cc(N)c3c2)cc1` [JTC-801], the remaining activity at 1.25 µM in test [1] (Well no.=5025) was found to be 98.2%; in test [1] (Well no.=7002), 95.7%. For the same molecule, the values for the remaining activity at 3.75 µM in test [2] (Well no.=5025) and in test [2] (Well no.=7002) were 98.7% and 91.5%, respectively.

With `COc1ccc(CN2C(=O)C(=O)c3cc(OC(F)(F)F)ccc32)cc1` [VU 0238429], the remaining activity at 1.25 µM in test [1] (Well no.=8702) amounted to 97.3%. Moreover, the remaining activity at 3.75 µM in test [2] (Well no.=8702) is 93.7%.

In the case of `C[C@H](NCc1ccc(OCc2cccc(F)c2)cc1)C(N)=O` [Safinamide mesylate salt], the remaining activity at 1.25 µM in test [1] (Well no.=5442) was found to be 89.5%. Further, in test [2] (Well no.=5442), the remaining activity at 3.75 µM came out at 94.5%.

For the molecule `COC(=O)C1=C(C)NC(C)=C(C(=O)OCCN(C)Cc2ccccc2)C1c1cccc([N+](=O)[O-])c1` (stereo not shown) [Nicardipine hydrochloride], in test [1] (Well no.=811), the remaining activity at 1.25 µM is 103%. Besides, the remaining activity at 3.75 µM in test [2] (Well no.=811) was 103%.

Consider `COc1cnc(-n2cnc(C)n2)c2c1c(C(=O)C(=O)N1CCN(C(=O)c3ccccc3)CC1)cn2COP(=O)(O)O` [Fostemsavir], for which the remaining activity at 1.25 µM in test [1] (Well no.=7748) turned out to be 101%. Besides, in test [2] (Well no.=7748), the remaining activity at 3.75 µM turned out to be 102%.

With `C[C@H](CCC(=O)O)[C@H]1CC[C@H]2[C@@H]3[C@H](O)C[C@@H]4C[C@H](O)CC[C@]4(C)[C@H]3CC[C@]12C` [Chenodeoxycholic Acid], the remaining activity at 1.25 µM in test [1] (Well no.=6483) came to 99.2%; in test [1] (Well no.=8382), 96.1%. Besides, the remaining activity at 3.75 µM in test [2] (Well no.=6483) turned out to be 101%; in test [2] (Well no.=8382) it was 88.2%.

Regarding `CC(C)NCC(O)c1ccc(NS(C)(=O)=O)cc1` (stereo not shown) [Sotalol.HCl], the remaining activity at 1.25 µM in test [1] (Well no.=1785) worked out at 103%. Further, the remaining activity at 3.75 µM in test [2] (Well no.=1785) came to 102%.

In the case of `CC(C)=CCC[C@](C)(O)[C@H]1CC[C@]2(C)[C@@H]1CC[C@@H]1[C@@]3(C)CCC(=O)C(C)(C)[C@@H]3CC[C@]12C` [Dipterocarpol], the remaining activity at 1.25 µM in test [1] (Well no.=3204) amounted to 105%. The remaining activity at 3.75 µM in test [2] (Well no.=3204) was found to be 106%.

In the case of `C[C@]12CCC(=O)C=C1CC[C@@H]1[C@@H]2CC[C@@]2(C)[C@H]1CC[C@]2(O)C(=O)CO` [Cortexolone], the remaining activity at 1.25 µM in test [1] (Well no.=1509) was 93.1%. Besides, the remaining activity at 3.75 µM in test [2] (Well no.=1509) stood at 93%.

On to `OC[C@H]1O[C@@H](Oc2ccc(O)cc2)[C@H](O)[C@@H](O)[C@@H]1O` [Arbutin], for which the remaining activity at 1.25 µM in test [1] (Well no.=3478) worked out at 103%. For the same molecule, the remaining activity at 3.75 µM in test [2] (Well no.=3478) was found to be 101%.

`COc1ccc2[nH]c([S+]([O-])Cc3ncc(C)c(OC)c3C)nc2n1` (stereo not shown) [Tenatoprazole]: the remaining activity at 1.25 µM in test [1] (Well no.=1950) is 98.5%. Besides, the remaining activity at 3.75 µM in test [2] (Well no.=1950) was 95.8%.

On to `CC#C[C@@H](CC(=O)O)c1ccc(OCc2cccc(-c3ccc(C(F)(F)F)cc3)c2)cc1` [AMG 837 (calcium hydrate)], for which the remaining activity at 1.25 µM in test [1] (Well no.=6944) turned out to be 98.4%. In addition, the remaining activity at 3.75 µM in test [2] (Well no.=6944) is 95.6%.

Take `CCC1C(C)=NN=C(c2ccc(OC)c(OC)c2)c2cc(OC)c(OC)cc21` (stereo not shown) [Tofisopam]: the remaining activity at 1.25 µM in test [1] (Well no.=5780) stood at 103%. Moreover, the remaining activity at 3.75 µM in test [2] (Well no.=5780) is 103%.

As to `O=C(COCC(=O)Nc1ccc(Cl)cc1C(=O)O)Nc1cccc(-c2ccoc2)c1` [TM5441], in test [1] (Well no.=6540), the remaining activity at 1.25 µM turned out to be 109%. Also, the remaining activity at 3.75 µM in test [2] (Well no.=6540) turned out to be 105%.

As to `CCOC(=O)N1CCC(NCCNC(=O)c2ccccc2C)CC1` [VU0357017 (hydrochloride)], the remaining activity at 1.25 µM in test [1] (Well no.=6995) was determined as 97.4%. Besides, the remaining activity at 3.75 µM in test [2] (Well no.=6995) stood at 95.5%.

Regarding `CC(C)C[C@H]1C(=O)O[C@H](Cc2ccccc2)C(=O)N(C)[C@@H](CC(C)C)C(=O)O[C@H](C)C(=O)N(C)[C@@H](CC(C)C)C(=O)O[C@H](Cc2ccccc2)C(=O)N(C)[C@@H](CC(C)C)C(=O)O[C@H](C)C(=O)N1C` [PF 1022A], the remaining activity at 1.25 µM in test [1] (Well no.=7942) turned out to be 101%. For the same molecule, in test [2] (Well no.=7942), the remaining activity at 3.75 µM came out at 114%.

On to `CC1=C(/C=C/C(C)=C/C=C/C(C)=C\C(=O)O)C(C)(C)CCC1` [Isotretinoin], for which, in test [1] (Well no.=6303), the remaining activity at 1.25 µM is 108%. Moreover, the remaining activity at 3.75 µM in test [2] (Well no.=6303) is 108%.

In the case of `C=CC(=O)N1C/C(=C\c2ccc([N+](=O)[O-])cc2)C(=O)/C(=C/c2ccc([N+](=O)[O-])cc2)C1` [1-acryloyl-3,5-bis((E)-4-nitrobenzylidene)piperidin-4-one], the remaining activity at 1.25 µM in test [1] (Well no.=6015) turned out to be 103%. For the same molecule, the remaining activity at 3.75 µM in test [2] (Well no.=6015) is 99.9%.

As to `CC(=O)OCC(=O)[C@@]1(O)CC[C@H]2[C@@H]3CCC4=CC(=O)CC[C@]4(C)[C@H]3[C@@H](O)C[C@@]21C` [Hydrocortisone 21-acetate], the remaining activity at 1.25 µM in test [1] (Well no.=2214) came to 100%. Besides, the remaining activity at 3.75 µM in test [2] (Well no.=2214) came out at 101%.

As to `Cn1cc(/C=C2\C(=O)Nc3cccnc32)c2ccccc21` [GW 441756 - 1,3-Dihydro-3-[(1-methyl-1H-indol-3-yl)methylene]-2H-pyrrolo[3,2-b]pyridin-2-one], the remaining activity at 1.25 µM in test [1] (Well no.=2488) was determined as 102%. Further, in test [2] (Well no.=2488), the remaining activity at 3.75 µM was 100%.

Take `CCCCn1c(=O)c2c(ncn2CC(C)=O)n(CCCC)c1=O` [Denbufylline]: the remaining activity at 1.25 µM in test [1] (Well no.=1765) worked out at 102%. Moreover, in test [2] (Well no.=1765), the remaining activity at 3.75 µM amounted to 99.8%.

As for `NC(N)=N[C@@H](CC(=O)O)C(=O)O` [Guanidinosuccinic acid], the remaining activity at 1.25 µM in test [1] (Well no.=8176) came to 109%. In addition, the remaining activity at 3.75 µM in test [2] (Well no.=8176) came out at 101%.

Regarding `CCN[C@H]1CN(CCCOC)S(=O)(=O)c2sc(S(N)(=O)=O)cc21` [Brinzolamide], the remaining activity at 1.25 µM in test [1] (Well no.=5028) turned out to be 105%. For the same molecule, the remaining activity at 3.75 µM in test [2] (Well no.=5028) worked out at 105%.

As for `OC[C@@H](O)C(O)[C@H](O)CO` [D-Arabitol], the remaining activity at 1.25 µM in test [1] (Well no.=6501) was 92.6%. Moreover, in test [2] (Well no.=6501), the remaining activity at 3.75 µM was found to be 93.2%.

Regarding `CO[C@@H]1[C@H](OC(=O)/C=C/C=C/C=C/C=C/C(=O)O)CC[C@]2(CO2)[C@H]1[C@@]1(C)O[C@@H]1CC=C(C)C` [Fumagillin], the remaining activity at 1.25 µM is 103% in test [1] (Well no.=1621) and 102% in test [1] (Well no.=3283). Besides, the remaining activity at 3.75 µM in test [2] (Well no.=1621) stood at 100%; in test [2] (Well no.=3283), 101%.

In the case of `Nc1nccc(Oc2ccc(NC(=O)c3c[nH]cc(-c4ccc(F)cc4)c3=O)cc2F)c1Cl` [BMS 794833], the remaining activity at 1.25 µM in test [1] (Well no.=5150) came out at 100%. Moreover, the remaining activity at 3.75 µM in test [2] (Well no.=5150) stood at 96.4%.

Consider `CCOC(=O)[C@H](CCc1ccccc1)N[C@@H](C)C(=O)N1Cc2cc(OC)c(OC)cc2C[C@H]1C(=O)O` [Moexipril (hydrochloride)], for which, in test [1] (Well no.=8028), the remaining activity at 1.25 µM worked out at 98.4%. Moreover, in test [2] (Well no.=8028), the remaining activity at 3.75 µM came to 97.8%.

On to `CN1C[C@@H]2C[C@H]1CN2c1cc2c(cc1F)c(=O)c(C(=O)O)cn2C1CC1` [Danofloxacin Mesylate], for which the remaining activity at 1.25 µM in test [1] (Well no.=5322) amounted to 87.6%. Besides, the remaining activity at 3.75 µM in test [2] (Well no.=5322) worked out at 86.3%.
